Results: paper PMC11864979, “First-in-class ultralong-target-residence-time p38α inhibitors as a mitosis-targeted therapy for colorectal cancer” (Nature Cancer, 2025)
Read-outs that look alike come from different tables or passages of the source.

What was measured:
Test in all cases: selectivity profiling in a panel of 340 wild-type kinases (Reaction Biology Europe)
Format in all cases: binding
340 wild-type kinases [1] = target: T1, 340 wild-type kinases (Homo sapiens, UniProt P06239)
T1 construct: purchased Reaction Biology Europe
T1 sequence (P06239 whole entry): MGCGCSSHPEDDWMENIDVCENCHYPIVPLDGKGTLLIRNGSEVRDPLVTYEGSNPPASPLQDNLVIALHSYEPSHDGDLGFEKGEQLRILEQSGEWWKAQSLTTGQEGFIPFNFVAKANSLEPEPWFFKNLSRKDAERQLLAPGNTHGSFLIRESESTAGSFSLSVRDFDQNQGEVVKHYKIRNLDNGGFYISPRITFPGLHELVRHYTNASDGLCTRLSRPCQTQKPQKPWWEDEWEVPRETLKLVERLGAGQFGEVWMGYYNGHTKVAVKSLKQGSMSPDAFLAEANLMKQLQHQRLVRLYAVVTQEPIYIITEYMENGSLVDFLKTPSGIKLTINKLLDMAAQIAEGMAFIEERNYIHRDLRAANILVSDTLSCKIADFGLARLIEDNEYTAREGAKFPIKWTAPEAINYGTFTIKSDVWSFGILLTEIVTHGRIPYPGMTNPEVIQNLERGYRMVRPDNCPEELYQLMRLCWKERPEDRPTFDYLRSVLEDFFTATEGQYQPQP

340 wild-type kinases [2] = target: T2, 340 wild-type kinases (Homo sapiens, UniProt Q07912)
T2 construct: purchased Reaction Biology Europe
T2 sequence (Q07912 whole entry): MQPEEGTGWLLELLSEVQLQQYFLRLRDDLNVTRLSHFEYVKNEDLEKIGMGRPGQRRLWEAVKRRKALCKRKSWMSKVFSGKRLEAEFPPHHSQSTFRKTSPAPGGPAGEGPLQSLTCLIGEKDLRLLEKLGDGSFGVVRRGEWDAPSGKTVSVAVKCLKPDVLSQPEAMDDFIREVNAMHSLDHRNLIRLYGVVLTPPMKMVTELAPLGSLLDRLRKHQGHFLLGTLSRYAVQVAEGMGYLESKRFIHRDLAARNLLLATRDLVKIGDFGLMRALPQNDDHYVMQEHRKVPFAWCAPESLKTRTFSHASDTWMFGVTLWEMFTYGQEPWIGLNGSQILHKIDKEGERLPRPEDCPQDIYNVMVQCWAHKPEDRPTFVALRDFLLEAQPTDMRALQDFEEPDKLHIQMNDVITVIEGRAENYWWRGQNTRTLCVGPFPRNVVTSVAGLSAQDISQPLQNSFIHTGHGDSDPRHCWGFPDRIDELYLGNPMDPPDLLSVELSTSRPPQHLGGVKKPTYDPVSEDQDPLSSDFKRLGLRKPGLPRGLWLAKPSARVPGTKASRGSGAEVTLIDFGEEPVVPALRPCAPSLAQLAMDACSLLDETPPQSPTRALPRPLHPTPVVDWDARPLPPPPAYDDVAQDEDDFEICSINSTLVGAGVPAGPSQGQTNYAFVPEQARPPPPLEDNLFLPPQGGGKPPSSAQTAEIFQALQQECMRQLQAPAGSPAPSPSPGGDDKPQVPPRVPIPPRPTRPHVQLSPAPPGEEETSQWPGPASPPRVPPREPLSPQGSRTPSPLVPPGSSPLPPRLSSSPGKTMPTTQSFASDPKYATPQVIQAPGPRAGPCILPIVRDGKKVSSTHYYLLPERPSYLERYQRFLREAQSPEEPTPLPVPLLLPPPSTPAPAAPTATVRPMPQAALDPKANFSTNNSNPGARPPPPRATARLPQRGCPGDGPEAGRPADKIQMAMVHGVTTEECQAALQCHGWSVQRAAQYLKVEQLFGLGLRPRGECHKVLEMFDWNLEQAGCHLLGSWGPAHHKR

340 wild-type kinases [3] = target: T3, 340 wild-type kinases (Homo sapiens, UniProt Q13470)
T3 construct: purchased Reaction Biology Europe
T3 sequence (Q13470 1-666): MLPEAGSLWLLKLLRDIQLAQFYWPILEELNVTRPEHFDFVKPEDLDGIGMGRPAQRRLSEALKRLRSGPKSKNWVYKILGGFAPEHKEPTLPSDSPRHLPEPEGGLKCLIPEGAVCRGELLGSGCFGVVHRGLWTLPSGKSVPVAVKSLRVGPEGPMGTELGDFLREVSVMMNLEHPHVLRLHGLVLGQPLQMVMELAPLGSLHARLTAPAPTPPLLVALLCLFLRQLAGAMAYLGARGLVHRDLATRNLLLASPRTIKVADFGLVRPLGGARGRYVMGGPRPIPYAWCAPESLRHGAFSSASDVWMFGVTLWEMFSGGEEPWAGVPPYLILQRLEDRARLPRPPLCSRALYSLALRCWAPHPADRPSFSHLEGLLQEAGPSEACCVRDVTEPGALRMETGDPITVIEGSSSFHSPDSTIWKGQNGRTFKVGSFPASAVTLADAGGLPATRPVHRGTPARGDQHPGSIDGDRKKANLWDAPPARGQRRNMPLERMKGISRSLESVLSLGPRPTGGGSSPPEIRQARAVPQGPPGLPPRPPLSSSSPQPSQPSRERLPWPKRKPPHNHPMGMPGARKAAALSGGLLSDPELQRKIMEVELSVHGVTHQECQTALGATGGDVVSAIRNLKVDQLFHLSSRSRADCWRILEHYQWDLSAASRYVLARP

340 wild-type kinases [4] = target: T4, 340 wild-type kinases (Homo sapiens, UniProt Q13554)
T4 construct: purchased Reaction Biology Europe
T4 sequence (Q13554 whole entry): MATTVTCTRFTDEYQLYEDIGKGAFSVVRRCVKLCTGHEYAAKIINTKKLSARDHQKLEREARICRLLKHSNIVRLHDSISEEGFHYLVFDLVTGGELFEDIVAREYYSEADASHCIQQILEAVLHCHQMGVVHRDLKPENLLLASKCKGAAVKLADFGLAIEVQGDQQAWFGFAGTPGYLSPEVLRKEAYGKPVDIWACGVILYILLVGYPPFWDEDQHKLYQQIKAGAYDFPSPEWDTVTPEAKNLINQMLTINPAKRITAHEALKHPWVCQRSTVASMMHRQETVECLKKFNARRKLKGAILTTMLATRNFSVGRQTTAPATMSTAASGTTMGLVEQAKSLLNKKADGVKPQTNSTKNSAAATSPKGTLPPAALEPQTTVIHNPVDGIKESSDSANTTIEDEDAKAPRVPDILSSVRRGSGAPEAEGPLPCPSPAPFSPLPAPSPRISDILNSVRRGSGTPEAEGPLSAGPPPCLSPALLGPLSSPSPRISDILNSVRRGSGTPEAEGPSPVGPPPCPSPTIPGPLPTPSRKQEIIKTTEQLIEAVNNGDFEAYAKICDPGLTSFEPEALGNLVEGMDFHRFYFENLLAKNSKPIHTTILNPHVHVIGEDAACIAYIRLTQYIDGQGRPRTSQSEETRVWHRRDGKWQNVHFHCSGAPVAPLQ

340 wild-type kinases [5] = target: T5, 340 wild-type kinases (Homo sapiens, UniProt Q8IYT8)
T5 construct: purchased Reaction Biology Europe
T5 sequence (Q8IYT8 1-1036): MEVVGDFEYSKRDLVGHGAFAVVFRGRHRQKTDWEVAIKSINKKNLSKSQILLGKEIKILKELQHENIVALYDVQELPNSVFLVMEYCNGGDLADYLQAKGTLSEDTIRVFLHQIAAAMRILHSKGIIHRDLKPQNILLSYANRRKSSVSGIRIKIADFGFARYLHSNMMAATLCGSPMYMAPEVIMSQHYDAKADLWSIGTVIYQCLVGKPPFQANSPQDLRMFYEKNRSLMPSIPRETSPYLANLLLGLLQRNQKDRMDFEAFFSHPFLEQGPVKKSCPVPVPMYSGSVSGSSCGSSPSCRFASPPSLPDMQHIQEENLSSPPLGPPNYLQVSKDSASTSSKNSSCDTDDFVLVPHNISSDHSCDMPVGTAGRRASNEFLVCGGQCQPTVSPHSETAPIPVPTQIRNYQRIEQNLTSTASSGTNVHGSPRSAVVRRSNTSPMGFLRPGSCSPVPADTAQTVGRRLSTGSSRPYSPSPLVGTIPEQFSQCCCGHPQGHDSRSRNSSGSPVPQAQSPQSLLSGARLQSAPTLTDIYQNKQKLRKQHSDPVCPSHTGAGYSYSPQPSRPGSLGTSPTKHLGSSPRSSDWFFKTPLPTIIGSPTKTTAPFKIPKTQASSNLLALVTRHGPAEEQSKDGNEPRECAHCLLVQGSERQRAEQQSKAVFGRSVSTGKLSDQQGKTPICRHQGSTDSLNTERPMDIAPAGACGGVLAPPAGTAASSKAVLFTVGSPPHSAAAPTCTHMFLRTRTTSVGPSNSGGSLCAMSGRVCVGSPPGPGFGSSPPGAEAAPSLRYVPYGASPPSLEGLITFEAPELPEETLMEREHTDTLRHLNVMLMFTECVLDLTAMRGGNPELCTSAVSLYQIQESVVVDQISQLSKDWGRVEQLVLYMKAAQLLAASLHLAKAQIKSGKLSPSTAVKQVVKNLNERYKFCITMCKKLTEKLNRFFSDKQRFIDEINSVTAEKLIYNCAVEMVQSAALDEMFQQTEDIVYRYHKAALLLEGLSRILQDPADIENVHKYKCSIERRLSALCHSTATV

340 wild-type kinases [6] = target: T6, 340 wild-type kinases (Homo sapiens, UniProt Q8N4C8)
T6 construct: purchased Reaction Biology Europe
T6 sequence (Q8N4C8 whole entry): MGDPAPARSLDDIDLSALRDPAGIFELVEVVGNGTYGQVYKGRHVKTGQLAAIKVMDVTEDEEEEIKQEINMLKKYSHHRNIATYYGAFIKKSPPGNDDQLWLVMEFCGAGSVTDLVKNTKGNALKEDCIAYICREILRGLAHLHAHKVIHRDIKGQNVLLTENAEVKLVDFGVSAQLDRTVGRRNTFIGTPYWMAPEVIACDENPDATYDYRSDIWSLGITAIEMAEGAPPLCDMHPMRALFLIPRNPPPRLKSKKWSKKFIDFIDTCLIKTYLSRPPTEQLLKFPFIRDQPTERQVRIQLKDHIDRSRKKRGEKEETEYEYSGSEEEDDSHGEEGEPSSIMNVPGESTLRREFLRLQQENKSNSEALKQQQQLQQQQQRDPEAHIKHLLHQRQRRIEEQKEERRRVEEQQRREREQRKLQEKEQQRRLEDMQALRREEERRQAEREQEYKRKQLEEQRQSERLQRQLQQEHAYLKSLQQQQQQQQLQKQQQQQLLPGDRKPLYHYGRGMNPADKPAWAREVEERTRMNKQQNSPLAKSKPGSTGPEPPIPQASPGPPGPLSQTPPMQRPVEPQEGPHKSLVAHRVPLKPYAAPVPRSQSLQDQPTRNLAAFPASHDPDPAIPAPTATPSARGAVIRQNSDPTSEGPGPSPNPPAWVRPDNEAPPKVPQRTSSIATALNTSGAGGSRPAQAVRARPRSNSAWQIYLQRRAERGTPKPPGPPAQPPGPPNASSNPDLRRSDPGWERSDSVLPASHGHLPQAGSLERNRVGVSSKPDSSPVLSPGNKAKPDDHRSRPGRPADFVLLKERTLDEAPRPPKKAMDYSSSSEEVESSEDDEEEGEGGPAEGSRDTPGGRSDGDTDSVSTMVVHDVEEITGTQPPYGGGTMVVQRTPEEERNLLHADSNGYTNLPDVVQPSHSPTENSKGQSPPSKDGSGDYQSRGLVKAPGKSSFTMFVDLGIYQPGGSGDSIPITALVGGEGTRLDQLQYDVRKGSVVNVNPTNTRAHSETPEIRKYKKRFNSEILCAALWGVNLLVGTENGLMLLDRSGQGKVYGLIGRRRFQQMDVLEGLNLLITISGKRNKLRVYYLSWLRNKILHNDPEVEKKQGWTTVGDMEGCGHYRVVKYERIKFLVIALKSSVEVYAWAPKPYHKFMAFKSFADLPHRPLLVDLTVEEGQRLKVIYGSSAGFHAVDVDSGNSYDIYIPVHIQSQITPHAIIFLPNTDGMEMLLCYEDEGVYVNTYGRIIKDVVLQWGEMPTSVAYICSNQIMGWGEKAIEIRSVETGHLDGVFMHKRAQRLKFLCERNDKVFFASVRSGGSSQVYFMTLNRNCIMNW

340 wild-type kinases [7] = target: T7, 340 wild-type kinases (Homo sapiens, UniProt Q8N5S9)
T7 construct: purchased Reaction Biology Europe
T7 sequence (Q8N5S9 whole entry): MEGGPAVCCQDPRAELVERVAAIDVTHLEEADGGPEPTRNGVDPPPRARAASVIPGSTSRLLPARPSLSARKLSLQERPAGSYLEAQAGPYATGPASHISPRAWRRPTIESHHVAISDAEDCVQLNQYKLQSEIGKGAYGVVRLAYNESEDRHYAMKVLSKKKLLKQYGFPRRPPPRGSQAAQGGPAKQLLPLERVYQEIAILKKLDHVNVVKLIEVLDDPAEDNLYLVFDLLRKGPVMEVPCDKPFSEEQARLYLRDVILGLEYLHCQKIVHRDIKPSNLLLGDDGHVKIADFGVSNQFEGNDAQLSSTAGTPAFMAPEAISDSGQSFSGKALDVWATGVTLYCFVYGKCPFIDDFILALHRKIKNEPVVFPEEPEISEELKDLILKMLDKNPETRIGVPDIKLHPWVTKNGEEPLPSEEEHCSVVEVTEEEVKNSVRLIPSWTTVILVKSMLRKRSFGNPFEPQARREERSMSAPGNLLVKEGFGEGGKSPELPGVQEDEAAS

## CNC(=O)c1ccc2c(c1)C(=O)c1ccc(Nc3ccc(F)c(NC(=O)C4CC4)c3)cc1CC2 [Compound 2015]
340 wild-type kinases [1]; 0.2 µM 2015, read-out: LCK residual activity
  remaining activity at 0.2 µM: 104%
340 wild-type kinases [1]; 1 µM 2015, read-out: LCK residual activity
  remaining activity at 1 µM: 95.6%
340 wild-type kinases [1]; LCK, 0.2 µM, read-out: residual activity
  remaining activity at 0.2 µM: 104%
340 wild-type kinases [1]; LCK, 1 µM, read-out: residual activity
  remaining activity at 1 µM: 95.6%
340 wild-type kinases [2]; 0.2 µM 2015, read-out: ACK1 residual activity
  remaining activity at 0.2 µM: 110%
340 wild-type kinases [2]; 1 µM 2015, read-out: ACK1 residual activity
  remaining activity at 1 µM: 108%
340 wild-type kinases [2]; ACK1, 0.2 µM, read-out: residual activity
  remaining activity at 0.2 µM: 110%
340 wild-type kinases [2]; ACK1, 1 µM, read-out: residual activity
  remaining activity at 1 µM: 108%
340 wild-type kinases [3]; 0.2 µM 2015, read-out: TNK1 residual activity
  remaining activity at 0.2 µM: 92.8%
340 wild-type kinases [3]; 1 µM 2015, read-out: TNK1 residual activity
  remaining activity at 1 µM: 85.3%
340 wild-type kinases [3]; TNK1, 0.2 µM, read-out: residual activity
  remaining activity at 0.2 µM: 92.8%
340 wild-type kinases [3]; TNK1, 1 µM, read-out: residual activity
  remaining activity at 1 µM: 85.3%
340 wild-type kinases [4]; 0.2 µM 2015, read-out: CAMK2B residual activity
  remaining activity at 0.2 µM: 112%
340 wild-type kinases [4]; 1 µM 2015, read-out: CAMK2B residual activity
  remaining activity at 1 µM: 89%
340 wild-type kinases [4]; CAMK2B, 0.2 µM, read-out: residual activity
  remaining activity at 0.2 µM: 112%
340 wild-type kinases [4]; CAMK2B, 1 µM, read-out: residual activity
  remaining activity at 1 µM: 89%
340 wild-type kinases [5]; 0.2 µM 2015, read-out: ULK2 residual activity
  remaining activity at 0.2 µM: 105%
340 wild-type kinases [5]; 1 µM 2015, read-out: ULK2 residual activity
  remaining activity at 1 µM: 87.8%
340 wild-type kinases [5]; ULK2, 0.2 µM, read-out: residual activity
  remaining activity at 0.2 µM: 105%
340 wild-type kinases [5]; ULK2, 1 µM, read-out: residual activity
  remaining activity at 1 µM: 87.8%
340 wild-type kinases [6]; 0.2 µM 2015, read-out: MINK1 residual activity
  remaining activity at 0.2 µM: 88.4%
340 wild-type kinases [6]; 1 µM 2015, read-out: MINK1 residual activity
  remaining activity at 1 µM: 84.4%
340 wild-type kinases [6]; MINK1, 0.2 µM, read-out: residual activity
  remaining activity at 0.2 µM: 88.4%
340 wild-type kinases [6]; MINK1, 1 µM, read-out: residual activity
  remaining activity at 1 µM: 84.4%
340 wild-type kinases [7]; 0.2 µM 2015, read-out: CAMKK1 residual activity
  remaining activity at 0.2 µM: 123%
340 wild-type kinases [7]; 1 µM 2015, read-out: CAMKK1 residual activity
  remaining activity at 1 µM: 106%
340 wild-type kinases [7]; CAMKK1, 0.2 µM, read-out: residual activity
  remaining activity at 0.2 µM: 123%
340 wild-type kinases [7]; CAMKK1, 1 µM, read-out: residual activity
  remaining activity at 1 µM: 106%
